In the test the test system is BDF1 mice, Lewis lung carcinoma iv, survival T/C. As to the kind of experiment: NCI In Vivo Anticancer Drug Screen. Data for tumor model Lewis Lung Carcinoma (intravenous) in B6D2F1 (BDF1) mice. The settings on record: endpoint: median survival time, higher = longer survival. The method, then: The antitumor activity of compounds was measured in mice bearing transplantable tumors. Survival or tumor size were measured and the results are expressed as the measurement made in the treated group (T) divided by the measurement made in the vehicle treated control group (C). The tumor model used in this assay is Lewis Lung Carcinoma (intravenous) in B6D2F1 (BDF1) mice

[1] abbreviates: dose: 25.0 mg/kg/injection, schedule: Q01DX009 (ip), vehicle: saline.
[2] abbreviates: dose: 50.0 mg/kg/injection, schedule: Q01DX009 (ip), vehicle: saline.
The mark [3] stands for this setting: dose: 100.0 mg/kg/injection, schedule: Q01DX009 (ip), vehicle: saline.
[4] abbreviates: dose: 12.5 mg/kg/injection, schedule: Q01DX009 (ip), vehicle: saline.
[5] abbreviates: dose: 200.0 mg/kg/injection, schedule: Q01DX009 (ip), vehicle: saline.
[6] abbreviates: dose: 25.0 mg/kg/injection, schedule: Q01DX009 (ip), vehicle: Klucel (hydroxypropylcellulose) (HPC).
Where [7] appears, read: dose: 50.0 mg/kg/injection, schedule: Q01DX009 (ip), vehicle: Klucel (hydroxypropylcellulose) (HPC).
The mark [8] stands for this setting: dose: 100.0 mg/kg/injection, schedule: Q01DX009 (ip), vehicle: Klucel (hydroxypropylcellulose) (HPC).

Each structure is given as a SMILES string. “And” between values parts separate entries of the source, which are not always exact repeats. Equal entries are not always repeated. Toxic doses and inconclusive results are not listed. Numbered stars: 1 amine (or outer) side, 2 acyl side, 3 side chain; on linkers, the order of the positions; unused ones are H or OH. Bridge positions count the residues as written; N and C are the ends. Square brackets hold non-standard residues; d marks the D form. Peptide text beside a SMILES is read from it. I, II: the chains in the order shown. Actinocin(9to1) = Cc1c2oc3c(C)ccc(C(=O)[*:1])c3nc-2c(C(=O)[*:2])c(N)c1=O; aThr = C[C@H](O)[C@H](N)C(=O)O; NMeV = CN[C@H](C(=O)O)C(C)C; Sar = CNCC(=O)O

In the case of `Nc1nc(=S)c2ncn(C3OC(COC(=O)c4ccc(Cl)cc4)C(OC(=O)c4ccc(Cl)cc4)C3OC(=O)c3ccc(Cl)cc3)c2[nH]1` (stereo unspecified), the T/C runs as follows: (dose: 18.75 mg/kg/injection, schedule: Q01DX009 (ip), vehicle: Klucel (hydroxypropylcellulose) (HPC)) 103 % of control; (dose: 37.5 mg/kg/injection, schedule: Q01DX009 (ip), vehicle: Klucel (hydroxypropylcellulose) (HPC)) 106 % of control; (dose: 150.0 mg/kg/injection, schedule: Q01DX009 (ip), vehicle: Klucel (hydroxypropylcellulose) (HPC)) 89 % of control.

As for `NC(=O)C(F)C(N)C(=O)O` (stereo unspecified), the T/C was 99 % of control under setting [1], 100 % of control under setting [2] and 103 % of control under setting [3].

As for `O=C(/C=C(\Cl)C(=O)NO)NO`, the T/C by setting is: (dose: 6.25 mg/kg/injection, schedule: Q01DX009 (ip), vehicle: saline) 124 % of control; under setting [4], 105 % of control; under setting [1], 105 % of control; under setting [2], 110 % of control; under setting [3], 115 % of control; under setting [5], 104 % of control.

In the case of `Nc1ccn(C2OC(COC(=O)C34CC5CC(CC(C5)C3)C4)C(O)C2O)c(=O)n1` (stereo unspecified), the T/C (dose: 12.5 mg/kg/injection, schedule: Q01DX009 (ip), vehicle: saline with Tween-80) was 116 % of control.

On to `COC(=O)CC(N)C(=O)O` (stereo unspecified), for which the T/C runs as follows: under setting [4], 115 % of control; under setting [2], 95 % of control; under setting [3], 109 % of control; under setting [5], 100 % of control.

On to `O=C(O)C(CSC(c1ccccc1)(c1ccccc1)c1ccccc1)N=Cc1cccs1` (stereo unspecified), for which the T/C is 107 % of control under setting [4], 102 % of control under setting [1] and 101 % of control under setting [2].

For `Cc1c2oc3c(C)ccc(C(=O)N[C@@H]4C(=O)N[C@H](C(C)C)C(=O)N5CCC[C@H]5C(=O)N(C)CC(=O)N(C)[C@@H](C(C)C)C(=O)O[C@H]4C)c3nc-2c(C(=O)N[C@@H]2C(=O)N[C@H](C(C)C)C(=O)N3CCC[C@H]3C(=O)N(C)CC(=O)N(C)[C@@H](C(C)C)C(=O)O[C@H]2C)c(N)c1=O` (I: [aThr][dV]P[Sar][NMeV] / II: [aThr][dV]P[Sar][NMeV]; ester I:1-I:C, II:1-II:C; linker I:N-II:N via Actinocin(9to1)), the T/C runs as follows: (dose: 65.0 micrograms/kg/injection, schedule: Q04DX003 (ip), vehicle: saline + alcohol) 91 % of control; (dose: 108.0 micrograms/kg/injection, schedule: Q04DX003 (ip), vehicle: saline + alcohol) 92 % of control and 94 % of control; (dose: 180.0 micrograms/kg/injection, schedule: Q04DX003 (ip), vehicle: saline + alcohol) 97 % of control and 104 % of control; (dose: 259.0 micrograms/kg/injection, schedule: Q01DX001 (ip), vehicle: saline + alcohol) 94 % of control; (dose: 300.0 micrograms/kg/injection, schedule: Q04DX003 (ip), vehicle: saline + alcohol) 95 % of control and 106 % of control; (dose: 432.0 micrograms/kg/injection, schedule: Q01DX001 (ip), vehicle: saline + alcohol) 98 % of control.

As for `CCc1nc(N)nc(N)c1-c1ccc(Cl)c(Cl)c1.[Cl][Pd][Cl]`, the T/C under setting [4] was 114 % of control.

As to `C=C1C(=O)C2=CC1CCC(=O)C1(C)CCC(OC(C)=O)C(C)(C)C1CC2O` (stereo unspecified), the T/C (dose: 3.75 mg/kg/injection, schedule: Q01DX009 (ip), vehicle: Klucel (hydroxypropylcellulose) (HPC)) was 105 % of control; the T/C (dose: 7.5 mg/kg/injection, schedule: Q01DX009 (ip), vehicle: Klucel (hydroxypropylcellulose) (HPC)) was 100 % of control; the T/C (dose: 15.0 mg/kg/injection, schedule: Q01DX009 (ip), vehicle: Klucel (hydroxypropylcellulose) (HPC)) was 100 % of control; the T/C (dose: 30.0 mg/kg/injection, schedule: Q01DX009 (ip), vehicle: Klucel (hydroxypropylcellulose) (HPC)) was 104 % of control; the T/C (dose: 60.0 mg/kg/injection, schedule: Q01DX009 (ip), vehicle: Klucel (hydroxypropylcellulose) (HPC)) is 93 % of control.

On to `CCCCCCCCCCCCCCCCS(=O)CC(O)COC(=O)c1ccc(C(=O)OCC(O)CS(=O)CCCCCCCCCCCCCCCC)cc1` (stereo unspecified), for which the T/C is, setting by setting: (dose: 12.5 mg/kg/injection, schedule: Q01DX009 (ip), vehicle: saline + Tween-80 + alcohol) 88 % of control; (dose: 25.0 mg/kg/injection, schedule: Q01DX009 (ip), vehicle: saline + alcohol) 95 % of control; (dose: 50.0 mg/kg/injection, schedule: Q01DX009 (ip), vehicle: saline + Tween-80 + alcohol) 95 % of control; (dose: 100.0 mg/kg/injection, schedule: Q01DX009 (ip), vehicle: saline + Tween-80 + alcohol) 92 % of control; (dose: 100.0 mg/kg/injection, schedule: Q01DX009 (ip), vehicle: saline + alcohol) 101 % of control; (dose: 200.0 mg/kg/injection, schedule: Q01DX009 (ip), vehicle: saline + Tween-80 + alcohol) 99 % of control. Besides, the T/C (dose: 200.0 mg/kg/injection, schedule: Q01DX009 (ip), vehicle: saline + alcohol) was 218 % of control.

Consider `O.O.[NH-]C1CCCCC1[NH-].[Pt+2]` (stereo unspecified), for which the T/C is 95 % of control (dose: 0.31 mg/kg/injection, schedule: Q01DX009 (ip), vehicle: dextrose); 99 % of control (dose: 2.5 mg/kg/injection, schedule: Q01DX009 (ip), vehicle: dextrose); 112 % of control (dose: 5.0 mg/kg/injection, schedule: Q01DX009 (ip), vehicle: dextrose); 117 % of control (dose: 10.0 mg/kg/injection, schedule: Q01DX009 (ip), vehicle: dextrose).

Turning to `COc1c2occc2cc2ccc(=O)oc12`, the T/C is 109 % of control (dose: 8.0 mg/kg/injection, schedule: Q01DX009 (ip), vehicle: saline with Tween-80); 109 % of control (dose: 16.0 mg/kg/injection, schedule: Q01DX009 (ip), vehicle: saline with Tween-80); 96 % of control (dose: 32.0 mg/kg/injection, schedule: Q01DX009 (ip), vehicle: saline with Tween-80); 113 % of control (dose: 64.0 mg/kg/injection, schedule: Q01DX009 (ip), vehicle: saline with Tween-80); 110 % of control (dose: 128.0 mg/kg/injection, schedule: Q01DX009 (ip), vehicle: saline with Tween-80).

Regarding `CC1=C(/C=C/C(C)=C/C=C/C(C)=C/C(=O)O)C(C)(C)CCC1`, the T/C was 92 % of control (dose: 4.0 mg/kg/injection, schedule: Q01DX005 (ip), vehicle: saline with Tween-80); 95 % of control (dose: 8.0 mg/kg/injection, schedule: Q01DX005 (ip), vehicle: saline with Tween-80); 102 % of control (dose: 16.0 mg/kg/injection, schedule: Q01DX005 (ip), vehicle: saline with Tween-80); 91 % of control (dose: 32.0 mg/kg/injection, schedule: Q01DX005 (ip), vehicle: saline with Tween-80); 91 % of control (dose: 128.0 mg/kg/injection, schedule: Q01DX005 (ip), vehicle: saline with Tween-80).

`CC(CNC(=O)CCOS(C)(=O)=O)NC(=O)CCOS(C)(=O)=O` (stereo unspecified): the T/C under setting [3] was 106 % of control.

Turning to `CCC1OCCN1C(C)C` (stereo unspecified), the T/C under setting [1] was 95 % of control and the T/C under setting [2] was 124 % of control.

As for `CC12C(=O)C=CCC1=CCC1C2CCC2(O)C(=O)OC3(C)C4CC5(C)C(COC16OC23C5C6=O)C(=O)O4` (stereo unspecified), the T/C is, setting by setting: under setting [6], 101 % of control; under setting [7], 100 % of control; under setting [8], 105 % of control.

`CCC/C=C/C=C/C(=O)OC1/C(=C/C(=O)OC)CC2CC(C(C)O)OC(=O)CC(O)CC3CC(OC(C)=O)C(C)(C)C(O)(CC4C/C(=C/C(=O)OC)CC(/C=C/C(C)(C)C1(O)O2)O4)O3` (stereo unspecified): the T/C was 90 % of control (dose: 18.75 micrograms/kg/injection, schedule: Q01DX009 (ip), vehicle: saline + alcohol); 98 % of control (dose: 37.5 micrograms/kg/injection, schedule: Q01DX009 (ip), vehicle: saline + alcohol); 107 % of control (dose: 75.0 micrograms/kg/injection, schedule: Q01DX009 (ip), vehicle: saline + alcohol).

Take `CCN(C)N=Nc1ccc(C(N)=O)cc1`: the T/C by setting is: (dose: 6.25 mg/kg/injection, schedule: Q01DX009 (ip), vehicle: Klucel (hydroxypropylcellulose) (HPC)) 104 % of control; (dose: 12.5 mg/kg/injection, schedule: Q01DX009 (ip), vehicle: Klucel (hydroxypropylcellulose) (HPC)) 102 % of control; under setting [6], 109 % of control; under setting [7], 122 % of control; under setting [8], 87 % of control.

With `Nc1n[nH]c(N)n1`, the T/C runs as follows: under setting [3], 90 % of control; under setting [5], 103 % of control; (dose: 400.0 mg/kg/injection, schedule: Q01DX009 (ip), vehicle: saline) 96 % of control; (dose: 800.0 mg/kg/injection, schedule: Q01DX009 (ip), vehicle: saline) 119 % of control.
